Patent US20220153746A1, “NITROGEN OXIDE-DONATING PDE-5 AND/OR PDE-6 INHIBITOR COMPOUNDS, AND USES THEREOF” (ILDONG PHARMACEUTICAL CO., LTD., priority 2020, published 2022)
Values joined by “and” are separate entries in the source; they are usually repeats but may differ in a detail not shown here. Equal values may be shown once. Read-outs that look alike come from different tables or passages of the source.

Test: TD Phase (Groups 1 and 3): plasma and ocular tissue concentrations and pharmacokinetics of Compound 18 and its metabolite Compound 4 after once daily ocular instillation of Compound 18 nanosuspension for 7 days
Assay type: in vivo, New Zealand white rabbits
Conditions: for Metabolite/Parent AUC Ratio: MW-corrected AUC of metabolite Compound 4 / parent Compound 18
Excerpt: This example illustrates the procedures and results for the levels of Compound 18 and its metabolite Compound 4 in plasma and ocular tissues of normotensive rabbits following ocular instillation of Compound 18 once daily for 7 consecutive days.
Twenty five (25) male New Zealand white rabbits were divided into 5 groups of varying amounts of animals per group.
The Test article, Compound 18 was formulated as a 2% nanosuspension in DI water containing 0.2% PS80 (polyoxyethylenesorbitan, monooleate (Tween 80)) and 0.4% HPMC (hydroxypropylmethylcellulose) at pH 6.77. Referred to herein as “Compound 18 nanosuspension.”
The study consisted of three groups (Groups 1-3) of 19 male rabbits (NZW) that underwent once daily morning ocular installation (1 eyedrop) for 7 consecutive days (Day 0-6). Groups 4-5 each consisted of 3 male rabbits (NZW) that were not dosed.
Blood samples (1 mL) were collected from the jugular vein at the intervals set out below for each group. The samples were then inverted several times following collection and held on wet ice until centrifuged. Samples were centrifuged within 60 minutes of collection under refrigeration (set at 5° C. for 10 minutes at 2000 g.
Group 1 (Pilot Study, terminal blood collection): blood was collected from 3 animals at 1 hour post day 7 dose of Compound 18 nanosuspension.
Group 3 (TD Phase, terminal blood collection): blood was collected from 3 animals at 0.5 hour, 3 animals at 2 hours, 3 animals at 4 hours, and 3 animals at 8 hours post day 7 dose of Compound 18 nanosuspension.
(§1) Group 1 (Pilot Study): 3 animals were terminated at 1 hour post Day 7 dose of Compound 18 nanosuspension. Following blood collection and termination, ocular tissues (aqueous humor, vitreous humor, cornea, iris/ciliary body, lens, optic nerve, retina, sclera/choroid, and trabecular meshwork) were collected from each animal and the tissue weights were recorded. Note: sclera and choroid were collected together. Iris and ciliary body were collected together.
as §1, with “3 (TD Phase):” for “1 (Pilot Study):”, “0.5 hour, 3 animals at 2 hours, 3 animals at 4 hours, and 3 animals at 8 hours” for “1 hour”
Plasma and tissue samples from treated animals (Groups 1-3) were analyzed for Compound 18 and its metabolite Compound 4 concentrations by LC-MS/MS.
Pharmacokinetic analysis was conducted using WinNonlin Version 6.2.1 (Pharsight, Mountain View, Calif.), operating as a validated software system. Noncompartmental analysis was conducted using the extravascular administration model for ocular instillation dosing.
The peak plasma and ocular tissue concentration, time to achieve peak plasma and ocular tissue concentration, half-life, and area under the plasma and ocular tissue concentration-time curve (Cmax, Tmax, T1/2, and AUC) were calculated from the TD phase combined with the pilot study mean animal plasma and ocular tissue concentrations for each sampling time/dose group for Compound 18 and its metabolite Compound 4.
BA Assay: Quantitation Range 0.05 to 100 ng/mL for Compound 18, 0.15 to 100 ng/mL for Compound 4.
3. Pipet 50 μL of each type of pre-spiked ocular tissue samples (AH/VH) for QC samples, 50 μL of incurred aqueous humor, and vitreous humor sample (if applicable) into a 96 well plate.
Ocular Tissues Homogenate Preparation: Incurred rabbit ocular tissues were weighed in Genogrinder tubes (plastic tubes with small beads) at the time of removal from the animal and stored frozen (<−70° C.) until analysis. The rabbit incurred ocular tissues were thawed on wet ice. […]

[1] = TD Phase, Group 1, 1 h, individual animals
[2] = TD Phase, Group 3, 0.5 h, individual animals
[3] = TD Phase, Group 3, 2 h, individual animals
[4] = TD Phase, Group 3, 8 h, individual animals
[5] = male, New Zealand white, rabbit, topical or ocular, 0.8 mg/kg/day, aqueous humor, Day 7, from mean concentrations
[6] = male, New Zealand white, rabbit, topical or ocular, 0.8 mg/kg/day, cornea, Day 7, from mean concentrations
[7] = male, New Zealand white, rabbit, topical or ocular, 0.8 mg/kg/day, iris/ciliary body, Day 7, from mean concentrations
[8] = male, New Zealand white, rabbit, topical or ocular, 0.8 mg/kg/day, lens, Day 7, from mean concentrations

CCCc1nn(C)c2c(=O)[nH]c(-c3cc(S(=O)(=O)N4CC(CCCO)C4)ccc3OCC)nc12 [Compound 4, 5-(2-ethoxy-5-((3-(3-hydroxypropyl)azetidin-1-yl)sulfonyl)phenyl)-1-methyl-3-propyl-1,6-dihydro-7H-pyrazolo[4,3-d]pyrimidin-7-one]
Metabolite/Parent AUC Ratio (Aqueous Humor, Day 7): 21700 | AUC0-8 (Cornea, Day 7, Compound 18 0.8 mg/kg ocular instillation once daily, Groups 1 and 3): 10096 ng·h/g | Metabolite/Parent AUC Ratio (Cornea, Day 7): 52.7 | AUC0-8 (Iris/Ciliary Body, Day 7, Compound 18 0.8 mg/kg ocular instillation once daily, Groups 1 and 3): 1795 ng·h/g | Metabolite/Parent AUC Ratio (Iris/Ciliary Body, Day 7): 13.1 | AUC0-8 (Lens, Day 7, Compound 18 0.8 mg/kg ocular instillation once daily, Groups 1 and 3): 68.7 ng·h/g | AUC0-8 (Optic Nerve, Day 7, Compound 18 0.8 mg/kg ocular instillation once daily, Groups 1 and 3): 159 ng·h/g | Metabolite/Parent AUC Ratio (Plasma, Day 7): 6.72 | AUC0-8 (Retina, Day 7, Compound 18 0.8 mg/kg ocular instillation once daily, Groups 1 and 3): 213 ng·h/g | AUC0-8 (Sclera/Choroid, Day 7, Compound 18 0.8 mg/kg ocular instillation once daily, Groups 1 and 3): 1494 ng·h/g | Compound 4 Plasma Conc. [1]: 0.412 ng/mL and 1.14 ng/mL and 0.839 ng/mL | Final Compound 4 Sclera/Choroid Conc. [1]: 171 ng/g and 240 ng/g | Final Compound 4 Retina Conc. (TD Phase, Group 1, 1 h, individual animals, BQL set to 0): 25.6 ng/g and 90.7 ng/g and 34.8 ng/g | Compound 4 Sclera/Choroid Homogenate Conc. (TD Phase, Group 1, 1 h, individual animals, homogenate dilution factor 8): 21.4 ng/mL and 30.0 ng/mL | Compound 4 Plasma Conc. [2]: 1.03 ng/mL and 0.812 ng/mL | Final Compound 4 Sclera/Choroid Conc. [2]: 154 ng/g and 142 ng/g and 331 ng/g | Compound 4 Sclera/Choroid Homogenate Conc. (TD Phase, Group 3, 0.5 h, individual animals, homogenate dilution factor 8): 19.3 ng/mL and 17.7 ng/mL and 41.4 ng/mL | Compound 4 Plasma Conc. [3]: BQL (BQL = Below lower limit of quantitation (0.0500 ng/mL for Compound 18 and 0.150 ng/mL for Compound 4)) | Final Compound 4 Sclera/Choroid Conc. [3]: 121 ng/g and 234 ng/g and 88.0 ng/g | Final Compound 4 Retina Conc. (TD Phase, Group 3, 2 h, individual animals, BQL set to 0): 118 ng/g and 23.4 ng/g and 11.4 ng/g | Compound 4 Sclera/Choroid Homogenate Conc. (TD Phase, Group 3, 2 h, individual animals, homogenate dilution factor 8): 15.1 ng/mL and 29.2 ng/mL and 11.0 ng/mL | Compound 4 Retina Homogenate Conc. (TD Phase, Group 3, 2 h, individual animals, homogenate dilution factor 20 (164 for animal 207671)): 0.719 ng/mL and 1.17 ng/mL and 0.568 ng/mL | Compound 4 Plasma Conc. (TD Phase, Group 3, 4 h, individual animals): BQL (BQL = Below lower limit of quantitation (0.0500 ng/mL for Compound 18 and 0.150 ng/mL for Compound 4)) | Final Compound 4 Retina Conc. (TD Phase, Group 3, 4 h, individual animals, BQL set to 0): 16.7 ng/g and 34.6 ng/g and 14.0 ng/g | Compound 4 Retina Homogenate Conc. (TD Phase, Group 3, 4 h, individual animals, homogenate dilution factor 20): 0.835 ng/mL and 1.73 ng/mL and 0.702 ng/mL | Compound 4 Plasma Conc. (TD Phase, Group 3, 8 h, Mean, BQL set to 0): BQL (BQL = Below lower limit of quantitation (0.0500 ng/mL for Compound 18 and 0.150 ng/mL for Compound 4)) | Compound 4 Plasma Conc. [4]: BQL (BQL = Below lower limit of quantitation (0.0500 ng/mL for Compound 18 and 0.150 ng/mL for Compound 4)) | Compound 4 Vitreous Humor Conc. [4]: BQL (BQL = Below lower limit of quantitation (0.0500 ng/mL for Compound 18 and 0.150 ng/mL for Compound 4)) | Final Compound 4 Retina Conc. (TD Phase, Group 3, 8 h, individual animals, BQL set to 0): 8.90 ng/g and 0 ng/g and 8.34 ng/g | Compound 4 Retina Homogenate Conc. (TD Phase, Group 3, 8 h, individual animals, homogenate dilution factor 20): BQL^a (BQL = Below lower limit of quantitation (0.0500 ng/mL for Compound 18 and 0.150 ng/mL for Compound 4)) and 0.417 ng/mL | tissue of highest concentration (TD phase plasma and ocular tissues): highest in cornea | AUC0-8 (Trabecular Meshwork, Day 7, Compound 18 0.8 mg/kg ocular instillation once daily, Groups 1 and 3): 533 ng·h/g | Metabolite/Parent AUC Ratio (Vitreous Humor, Day 7): 447 | AUC0-8 (cornea, Day 7, from mean concentrations): 10096 ng·h/g | AUC0-8 (iris/ciliary body, Day 7, from mean concentrations): 1795 ng·h/g | AUC0-8 (lens, Day 7, from mean concentrations): 68.7 ng·h/g | Metabolite/parent AUC ratio (Compound 4 vs Compound 18) (lens, TD phase): 63.0 | concentration at 0.5 h (male, New Zealand white, rabbit, plasma, other: ocular instillation, 0.8 mg/kg/day, TD Phase, Group 3, 0.5 h, Mean, BQL set to 0, read-out: Compound 4 Plasma Conc.): 1.02 ng/mL | concentration at 0.5 h (male, New Zealand white, rabbit, plasma, other: ocular instillation, 0.8 mg/kg/day, TD Phase, Group 3, 0.5 h, individual animals, read-out: Compound 4 Plasma Conc.): 1.22 ng/mL | concentration at 8 h (male, New Zealand white, rabbit, retina homogenate, other: ocular instillation (eye drop), 0.798 mg/kg/day, TD Phase, Group 3, 8 h, individual animals, homogenate dilution factor 20, read-out: Compound 4 Retina Homogenate Conc.): 0.445 ng/mL | concentration at 1 h (male, New Zealand white, rabbit, retina, other: ocular instillation (eye drop), 0.798 mg/kg/day, TD Phase, Group 1, 1 h, Mean, read-out: Final Compound 4 Retina Conc.): 50.2 ng/g | concentration at 2 h (male, New Zealand white, rabbit, retina, other: ocular instillation (eye drop), 0.798 mg/kg/day, TD Phase, Group 3, 2 h, Mean, read-out: Final Compound 4 Retina Conc.): 50.9 ng/g | concentration at 4 h (male, New Zealand white, rabbit, retina, other: ocular instillation (eye drop), 0.798 mg/kg/day, TD Phase, Group 3, 4 h, Mean, read-out: Final Compound 4 Retina Conc.): 21.8 ng/g | concentration at 8 h (male, New Zealand white, rabbit, retina, other: ocular instillation (eye drop), 0.798 mg/kg/day, TD Phase, Group 3, 8 h, Mean, read-out: Final Compound 4 Retina Conc.): 5.75 ng/g | concentration at 1 h (male, New Zealand white, rabbit, sclera/choroid homogenate, other: ocular instillation (eye drop), 0.798 mg/kg/day, TD Phase, Group 1, 1 h, individual animals, homogenate dilution factor 8, read-out: Compound 4 Sclera/Choroid Homogenate Conc.): 17 ng/mL | concentration at 1 h (male, New Zealand white, rabbit, sclera/choroid, other: ocular instillation (eye drop), 0.798 mg/kg/day, TD Phase, Group 1, 1 h, Mean, read-out: Final Compound 4 Sclera/Choroid Conc.): 182 ng/g | concentration at 1 h (male, New Zealand white, rabbit, sclera/choroid, other: ocular instillation (eye drop), 0.798 mg/kg/day, TD Phase, Group 1, 1 h, individual animals, read-out: Final Compound 4 Sclera/Choroid Conc.): 136 ng/g | concentration at 0.5 h (male, New Zealand white, rabbit, sclera/choroid, other: ocular instillation (eye drop), 0.798 mg/kg/day, TD Phase, Group 3, 0.5 h, Mean, read-out: Final Compound 4 Sclera/Choroid Conc.): 209 ng/g | concentration at 2 h (male, New Zealand white, rabbit, sclera/choroid, other: ocular instillation (eye drop), 0.798 mg/kg/day, TD Phase, Group 3, 2 h, Mean, read-out: Final Compound 4 Sclera/Choroid Conc.): 148 ng/g | Cmax [5]: 124 ng/mL | Tmax [5]: 1 h | half-life [5]: 1.95 h | AUC(0-t) (male, New Zealand white, rabbit, topical or ocular, 0.8 mg/kg/day, aqueous humor, Day 7, from mean concentrations, read-out: AUC0-8): 314 ng·h/mL | Cmax [6]: 3600 ng/g | Tmax [6]: 1 h | half-life [6]: 2.63 h | Cmax [7]: 980 ng/g | Tmax [7]: 1 h | half-life [7]: 2.11 h | Cmax [8]: 18.1 ng/g | Tmax [8]: 1 h | half-life [8]: 2.25 h
